Experimental data reported in patent US20130090476A1, “Thiazolylpiperidine Derivatives as Fungicides” (priority 2009, published 2013).

Experiment: logP determination by HPLC (EEC Directive 79/831 Annex V.A8), LC-MS
[1] = * acidic range, pH 2.7, 0.1% aqueous formic acid/acetonitrile
[2] = pH 2.7, log P (pH2.7), pH 2.7, value given in the preparation text
[3] = pH 2.7, logP, * acidic range, pH 2.7, 0.1% aqueous formic acid/acetonitrile

Fc1ccc(Br)c(NC(=S)N2CCC(c3nc(CSc4nnnn4-c4ccccc4)cs3)CC2)c1 [Compound I-66]
logP [1]: 3.46*

Cc1cc(C(F)(F)F)nn1CC(=O)N1CCC(c2nc(CSc3cccc4cccnc34)cs2)CC1 [Compound I-5, 1-(4-{4-[(Quinolin-8-ylsulphanyl)methyl]-1,3-thiazol-2-yl}piperidin-1-yl)-2-[5-methyl-3-(trifluoromethyl)-1H-pyrazol-1-yl]ethanone]
chromatographic logP [2]: 3 | chromatographic logP [3]: 3

CC(C)(C)OC(=O)N1CCC(c2nc(CSc3cccc4cccnc34)cs2)CC1 [IV-5, tert-Butyl 4-{4-[(quinolin-8-ylsulphanyl)methyl]-1,3-thiazol-2-yl}piperidine-1-carboxylate]
chromatographic logP [2]: 3.71

Cc1cc(C(F)(F)F)nn1CC(=O)N1CCC(c2nc(C[S+]([O-])C3CCCCC3)cs2)CC1 (stereo not drawn) [Compound I-11, 1-(4-{4-[(Cyclohexylsulphinyl)methyl]-1,3-thiazol-2-yl}piperidin-1-yl)-2-[5-methyl-3-(trifluoromethyl)-1H-pyrazol-1-yl]ethanone]
chromatographic logP [2]: 2.55 | chromatographic logP [3]: 2.55

CC(C)(C)OC(=O)N1CCC(c2nc(CSC3=NOC(c4ccccc4)C3)cs2)CC1 (stereo not drawn) [IV-6, tert-Butyl 4-[4-({[5-phenyl-4,5-dihydro-1,2-oxazol-3-yl]sulphanyl}methyl)-1,3-thiazol-2-yl]piperidine-1-carboxylate]
chromatographic logP [2]: 4.25

COc1ccc(Cl)cc1NC(=O)N1CCC(c2nc(CSc3nnnn3-c3ccccc3)cs2)CC1 [Compound I-79]
logP [1]: 3.8*

O=C(Cn1nc(C(F)F)cc1C(F)F)N1CCC(c2nc(CSc3ccccc3-c3ccccc3)cs2)CC1 [Compound I-19]
logP [1]: 4.36*

CC(C)(C)OC(=O)N1CCC(c2nc(CSC34CC5CC(CC(C5)C3)C4)cs2)CC1 [IV-2, tert-Butyl 4-(4-{[(3S,5S,7S)-adamantan-1-ylsulphanyl]methyl}-1,3-thiazol-2-yl)piperidine-1-carboxylate]
chromatographic logP [2]: 6.66

CC(C)(C)OC(=O)N1CCC(c2nc(CSc3cccc4ccccc34)cs2)CC1 [IV-1, tert-Butyl 4-{4-[(1-naphthylsulphanyl)methyl]-1,3-thiazol-2-yl}piperidine-1-carboxylate]
chromatographic logP [2]: 5.33

Cc1cc(C(F)(F)F)nn1CC(=O)N1CCC(c2nc(C[S+]([O-])c3cccc4cccnc34)cs2)CC1 (stereo not drawn) [Compound I-12, 1-(4-{4-[(Quinolin-8-ylsulphinyl)methyl]-1,3-thiazol-2-yl}piperidin-1-yl)-2-[5-methyl-3-(trifluoromethyl)-1H-pyrazol-1-yl]ethanone]
chromatographic logP [2]: 2.48 | chromatographic logP [3]: 2.48

O=C(Cn1nc(C(F)F)cc1C(F)F)N1CCC(c2nc(CSC3=NOC(c4ccccc4)C3)cs2)CC1 (stereo not drawn) [Compound I-58, 2-[3,5-Bis(difluoromethyl)-1H-pyrazol-1-yl]-1-{4-[4-({[5-phenyl-4,5-dihydro-1,2-oxazol-3-yl]sulphanyl}methyl)-1,3-thiazol-2-yl]piperidin-1-yl}ethanone]
chromatographic logP [2]: 3.4 | chromatographic logP [3]: 3.4

ClC1=NOC(c2ccccc2)C1 (stereo not drawn) [Compound X-1, 3-Chloro-5-phenyl-4,5-dihydro-1,2-oxazole]
chromatographic logP [2]: 2.36

Cc1cc(C(F)(F)F)nn1CC(=O)N1CCC(c2nc(CSc3ccccc3-c3ccccc3)cs2)CC1 [Compound I-69]
logP [1]: 4.49*

O=C(Nc1cc(F)ccc1F)N1CCC(c2nc(CSc3nnnn3-c3ccccc3)cs2)CC1 [Compound I-56]
logP [1]: 3.27*

S=C(Nc1cc(Cl)ccc1Cl)N1CCC(c2nc(CSc3nnnn3-c3ccccc3)cs2)CC1 [Compound I-52]
logP [1]: 3.77*

Fc1ccc(F)c(NC(=S)N2CCC(c3nc(CSc4nnnn4-c4ccccc4)cs3)CC2)c1 [Compound I-23]
logP [1]: 3.26*

CC(C)(C)OC(=O)N1CCC(c2nc(CSC3CCCCC3)cs2)CC1 [IV-3, tert-Butyl 4-{4-[(cyclohexylsulphanyl)methyl]-1,3-thiazol-2-yl}piperidine-1-carboxylate]
chromatographic logP [2]: 5.45
